Drawing on ChEMBL document CHEMBL4028801, “A multifactorial approach to hepatobiliary transporter assessment enables improved therapeutic compound development” (Toxicol Sci, 2013), this text covers IC50 for 31 compounds.

Assay [1] deals with ATP-binding cassette sub-family C member 3 (Homo sapiens, UniProt O15438). Description: Inhibition of human MRP3 overexpressed in Sf9 insect cell membrane vesicles assessed as uptake of [3H]-estradiol-17beta-D-glucuronide in presence of ATP and GSH measured after 10 mins by membrane vesicle transport assay. Format: ADME, cell-based.
Assay [2] deals with Bile salt export pump (Homo sapiens, UniProt O95342). Description: Inhibition of human BSEP overexpressed in Sf9 cell membrane vesicles assessed as uptake of [3H]-taurocholate in presence of ATP measured after 15 to 20 mins by membrane vesicle transport assay. The assay is classed as ADME, cell-based.
Assay [3] deals with T1, ATP-binding cassette sub-family C member 4 (Homo sapiens, UniProt O15439).
T1 sequence (O15439 whole entry): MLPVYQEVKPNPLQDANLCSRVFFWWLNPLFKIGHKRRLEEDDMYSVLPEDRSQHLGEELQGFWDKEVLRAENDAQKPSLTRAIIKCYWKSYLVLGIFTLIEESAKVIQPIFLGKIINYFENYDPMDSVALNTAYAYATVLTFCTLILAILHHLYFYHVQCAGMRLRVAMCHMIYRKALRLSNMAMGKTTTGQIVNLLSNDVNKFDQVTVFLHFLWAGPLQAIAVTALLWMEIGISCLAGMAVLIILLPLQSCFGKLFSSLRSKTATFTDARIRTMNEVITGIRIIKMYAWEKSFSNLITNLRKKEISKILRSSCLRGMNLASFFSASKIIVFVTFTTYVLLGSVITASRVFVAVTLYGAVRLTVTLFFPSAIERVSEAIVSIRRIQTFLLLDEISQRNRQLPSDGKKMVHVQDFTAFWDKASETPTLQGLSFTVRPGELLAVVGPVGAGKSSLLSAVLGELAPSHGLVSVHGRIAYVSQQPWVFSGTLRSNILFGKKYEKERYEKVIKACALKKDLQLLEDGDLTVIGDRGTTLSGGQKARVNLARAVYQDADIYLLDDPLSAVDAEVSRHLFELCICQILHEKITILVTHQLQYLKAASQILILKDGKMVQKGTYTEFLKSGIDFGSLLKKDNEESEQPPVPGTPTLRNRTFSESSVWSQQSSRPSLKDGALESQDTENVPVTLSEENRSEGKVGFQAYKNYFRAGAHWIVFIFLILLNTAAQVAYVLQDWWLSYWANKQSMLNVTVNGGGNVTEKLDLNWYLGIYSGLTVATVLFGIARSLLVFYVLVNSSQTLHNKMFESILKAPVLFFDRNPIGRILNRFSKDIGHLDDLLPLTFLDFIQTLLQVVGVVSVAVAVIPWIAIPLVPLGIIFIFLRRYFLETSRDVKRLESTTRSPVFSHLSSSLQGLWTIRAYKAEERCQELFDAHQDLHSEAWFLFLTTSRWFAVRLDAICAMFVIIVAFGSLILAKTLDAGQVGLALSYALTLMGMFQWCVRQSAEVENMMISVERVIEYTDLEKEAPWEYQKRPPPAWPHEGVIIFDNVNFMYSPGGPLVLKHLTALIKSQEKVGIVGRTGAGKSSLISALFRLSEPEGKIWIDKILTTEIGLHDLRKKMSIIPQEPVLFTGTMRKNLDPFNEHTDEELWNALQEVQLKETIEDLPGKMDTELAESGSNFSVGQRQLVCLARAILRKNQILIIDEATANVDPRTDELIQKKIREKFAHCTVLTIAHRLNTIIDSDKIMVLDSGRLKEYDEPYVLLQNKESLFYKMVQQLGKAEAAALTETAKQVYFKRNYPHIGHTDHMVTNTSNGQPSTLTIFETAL
Description: Inhibition of human MRP4 overexpressed in Sf9 cell membrane vesicles assessed as uptake of [3H]-estradiol-17beta-D-glucuronide in presence of ATP and GSH measured after 20 mins by membrane vesicle transport assay. Format: ADME, cell-based.

For assay [4], the target named is ATP-binding cassette sub-family C member 2 (Homo sapiens, UniProt Q92887). As to the kind of experiment: Inhibition of human MRP2 overexpressed in Sf9 cell membrane vesicles assessed as uptake of [3H]-estradiol-17beta-D-glucuronide in presence of ATP and GSH measured after 20 mins by membrane vesicle transport assay.

Structures can show the parent of a compound that is named as a salt.

Bile salt export pump, sequence (O95342 whole entry): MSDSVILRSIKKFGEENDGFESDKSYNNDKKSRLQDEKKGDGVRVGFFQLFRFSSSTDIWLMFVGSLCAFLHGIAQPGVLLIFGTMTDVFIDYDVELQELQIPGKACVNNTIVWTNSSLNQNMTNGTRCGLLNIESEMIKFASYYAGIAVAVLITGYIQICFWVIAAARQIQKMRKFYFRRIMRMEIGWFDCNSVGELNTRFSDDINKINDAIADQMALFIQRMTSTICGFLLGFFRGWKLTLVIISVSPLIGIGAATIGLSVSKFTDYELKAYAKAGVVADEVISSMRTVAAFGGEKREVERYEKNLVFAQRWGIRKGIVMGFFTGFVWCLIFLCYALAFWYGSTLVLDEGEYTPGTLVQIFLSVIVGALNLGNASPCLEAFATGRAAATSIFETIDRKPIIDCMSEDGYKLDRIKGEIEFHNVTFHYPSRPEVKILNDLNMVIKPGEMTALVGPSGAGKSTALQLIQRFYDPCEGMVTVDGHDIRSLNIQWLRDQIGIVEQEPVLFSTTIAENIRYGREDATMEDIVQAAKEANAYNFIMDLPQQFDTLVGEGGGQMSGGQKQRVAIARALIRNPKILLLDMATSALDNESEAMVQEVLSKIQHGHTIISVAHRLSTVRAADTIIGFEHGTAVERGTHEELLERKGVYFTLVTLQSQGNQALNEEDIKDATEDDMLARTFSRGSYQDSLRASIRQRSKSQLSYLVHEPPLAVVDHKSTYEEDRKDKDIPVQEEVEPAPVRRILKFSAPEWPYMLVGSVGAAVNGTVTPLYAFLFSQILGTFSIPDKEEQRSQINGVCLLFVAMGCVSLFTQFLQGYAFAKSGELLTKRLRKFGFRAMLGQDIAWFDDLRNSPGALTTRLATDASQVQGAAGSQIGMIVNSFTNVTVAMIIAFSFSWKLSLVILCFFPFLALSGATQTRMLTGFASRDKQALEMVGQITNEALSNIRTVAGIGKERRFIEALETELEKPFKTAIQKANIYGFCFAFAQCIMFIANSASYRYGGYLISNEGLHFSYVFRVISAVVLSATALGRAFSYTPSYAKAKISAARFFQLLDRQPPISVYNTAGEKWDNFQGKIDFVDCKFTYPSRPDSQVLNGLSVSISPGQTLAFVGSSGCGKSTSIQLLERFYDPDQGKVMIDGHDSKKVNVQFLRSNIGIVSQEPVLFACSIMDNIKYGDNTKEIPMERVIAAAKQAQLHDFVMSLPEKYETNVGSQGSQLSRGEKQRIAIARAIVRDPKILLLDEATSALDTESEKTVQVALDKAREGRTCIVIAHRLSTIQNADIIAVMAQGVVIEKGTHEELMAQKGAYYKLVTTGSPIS
ATP-binding cassette sub-family C member 2, sequence (Q92887 whole entry): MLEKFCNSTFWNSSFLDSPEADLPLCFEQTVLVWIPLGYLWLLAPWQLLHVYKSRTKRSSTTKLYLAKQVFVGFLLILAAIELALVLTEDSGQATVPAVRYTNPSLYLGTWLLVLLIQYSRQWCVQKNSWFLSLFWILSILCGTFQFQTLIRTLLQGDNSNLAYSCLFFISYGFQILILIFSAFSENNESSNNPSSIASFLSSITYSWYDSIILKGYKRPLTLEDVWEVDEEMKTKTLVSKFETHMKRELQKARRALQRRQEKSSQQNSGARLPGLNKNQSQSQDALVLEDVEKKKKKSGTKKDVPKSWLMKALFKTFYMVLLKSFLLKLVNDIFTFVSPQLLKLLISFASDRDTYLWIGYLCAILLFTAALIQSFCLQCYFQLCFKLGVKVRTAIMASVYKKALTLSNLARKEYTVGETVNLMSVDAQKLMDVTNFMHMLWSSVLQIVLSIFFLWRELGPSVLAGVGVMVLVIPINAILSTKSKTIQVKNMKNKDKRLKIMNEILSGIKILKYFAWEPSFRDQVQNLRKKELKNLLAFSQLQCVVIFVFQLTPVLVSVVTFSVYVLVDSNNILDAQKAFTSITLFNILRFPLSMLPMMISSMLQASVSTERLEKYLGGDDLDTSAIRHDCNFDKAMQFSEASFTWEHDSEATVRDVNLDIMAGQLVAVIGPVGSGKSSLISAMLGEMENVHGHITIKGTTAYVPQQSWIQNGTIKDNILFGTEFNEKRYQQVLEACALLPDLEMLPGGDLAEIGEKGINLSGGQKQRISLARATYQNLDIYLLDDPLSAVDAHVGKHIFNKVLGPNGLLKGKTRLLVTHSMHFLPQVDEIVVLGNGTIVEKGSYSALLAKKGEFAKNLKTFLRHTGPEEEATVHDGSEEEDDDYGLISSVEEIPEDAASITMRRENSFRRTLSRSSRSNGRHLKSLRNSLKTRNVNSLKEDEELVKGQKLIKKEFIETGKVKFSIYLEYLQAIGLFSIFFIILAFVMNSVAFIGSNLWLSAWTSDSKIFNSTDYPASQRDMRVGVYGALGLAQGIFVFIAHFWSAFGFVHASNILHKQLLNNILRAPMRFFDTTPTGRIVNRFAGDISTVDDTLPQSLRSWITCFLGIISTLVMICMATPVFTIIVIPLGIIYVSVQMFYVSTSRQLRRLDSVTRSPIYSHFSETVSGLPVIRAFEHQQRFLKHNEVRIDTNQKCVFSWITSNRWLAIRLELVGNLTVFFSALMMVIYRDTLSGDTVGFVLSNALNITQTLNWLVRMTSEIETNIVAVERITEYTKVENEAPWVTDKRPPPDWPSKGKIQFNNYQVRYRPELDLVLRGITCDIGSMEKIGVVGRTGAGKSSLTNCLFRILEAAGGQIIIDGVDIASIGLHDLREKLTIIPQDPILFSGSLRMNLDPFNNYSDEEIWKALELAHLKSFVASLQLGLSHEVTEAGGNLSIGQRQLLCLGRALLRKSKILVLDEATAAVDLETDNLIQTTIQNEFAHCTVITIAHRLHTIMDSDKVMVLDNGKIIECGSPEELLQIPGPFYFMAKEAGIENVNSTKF
ATP-binding cassette sub-family C member 3, sequence (O15438 whole entry): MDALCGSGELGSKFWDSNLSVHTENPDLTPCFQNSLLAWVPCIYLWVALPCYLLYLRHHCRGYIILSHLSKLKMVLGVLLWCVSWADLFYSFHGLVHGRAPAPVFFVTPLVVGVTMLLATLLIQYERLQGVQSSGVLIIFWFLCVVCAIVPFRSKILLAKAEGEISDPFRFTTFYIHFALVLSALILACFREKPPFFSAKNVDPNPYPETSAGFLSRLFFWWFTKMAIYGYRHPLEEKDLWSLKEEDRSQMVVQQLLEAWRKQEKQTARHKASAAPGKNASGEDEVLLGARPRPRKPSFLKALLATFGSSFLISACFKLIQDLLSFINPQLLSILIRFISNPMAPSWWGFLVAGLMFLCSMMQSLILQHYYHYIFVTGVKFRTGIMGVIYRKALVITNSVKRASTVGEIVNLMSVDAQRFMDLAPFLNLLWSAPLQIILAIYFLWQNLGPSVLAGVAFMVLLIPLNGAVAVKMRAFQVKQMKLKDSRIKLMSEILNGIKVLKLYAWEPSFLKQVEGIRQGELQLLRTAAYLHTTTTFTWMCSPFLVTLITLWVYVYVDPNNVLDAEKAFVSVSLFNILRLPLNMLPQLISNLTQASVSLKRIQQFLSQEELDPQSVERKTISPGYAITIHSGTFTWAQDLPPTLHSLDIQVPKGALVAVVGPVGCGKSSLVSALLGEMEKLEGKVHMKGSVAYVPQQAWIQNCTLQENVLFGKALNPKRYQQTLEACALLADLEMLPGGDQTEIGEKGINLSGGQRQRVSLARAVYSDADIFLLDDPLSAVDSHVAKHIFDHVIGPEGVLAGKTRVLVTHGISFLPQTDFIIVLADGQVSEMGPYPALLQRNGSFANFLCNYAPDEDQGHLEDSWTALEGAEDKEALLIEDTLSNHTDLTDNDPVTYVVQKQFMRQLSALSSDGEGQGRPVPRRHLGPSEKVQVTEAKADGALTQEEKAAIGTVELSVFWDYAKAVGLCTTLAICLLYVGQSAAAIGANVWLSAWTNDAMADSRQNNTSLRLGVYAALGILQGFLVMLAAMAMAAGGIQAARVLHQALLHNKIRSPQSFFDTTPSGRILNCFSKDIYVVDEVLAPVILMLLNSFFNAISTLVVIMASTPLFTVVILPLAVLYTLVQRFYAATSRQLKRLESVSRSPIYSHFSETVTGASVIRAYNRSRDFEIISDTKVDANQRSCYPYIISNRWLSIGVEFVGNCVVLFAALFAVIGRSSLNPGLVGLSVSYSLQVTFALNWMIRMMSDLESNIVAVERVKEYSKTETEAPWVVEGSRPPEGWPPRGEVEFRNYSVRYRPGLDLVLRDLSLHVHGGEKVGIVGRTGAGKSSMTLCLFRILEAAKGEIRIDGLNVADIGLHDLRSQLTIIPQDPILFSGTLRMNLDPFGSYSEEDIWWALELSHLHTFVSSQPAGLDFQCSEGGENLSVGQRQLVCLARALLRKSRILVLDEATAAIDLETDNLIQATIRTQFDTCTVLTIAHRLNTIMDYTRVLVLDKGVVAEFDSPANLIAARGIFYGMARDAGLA

As to `O=C(O)c1ccccc1-c1c2ccc(=O)cc-2oc2cc(O)ccc12`, the half-inhibitory concentration (IC50) in assay [1], in assay [2], in assay [3] and in assay [4] was more than 133 µM throughout.

Regarding `Cn1c(=O)c2[nH]cnc2n(C)c1=O` [AMINOPHYLLINE], the IC50 (as a rule, the concentration needed to halve the response being measured) in assay [1] was more than 133 µM; in assay [2], more than 133 µM; in assay [3], 131 µM; in assay [4] it was more than 133 µM.

In the case of `Nc1nc(=O)n([C@@H]2CS[C@H](CO)O2)cc1F` [EMTRICITABINE], the 50% inhibitory concentration (IC50) in assay [1], in assay [2], in assay [3] and in assay [4] was more than 133 µM throughout.

In the case of `COc1cccc2c1C(=O)c1c(O)c3c(c(O)c1C2=O)C[C@@](O)(C(=O)CO)C[C@@H]3O[C@H]1C[C@H](N)[C@H](O)[C@H](C)O1` [DOXORUBICIN], the concentration for half-maximal inhibition (IC50) in assay [1] is more than 133 µM; in assay [2], more than 133 µM; in assay [3], 19 µM; in assay [4], more than 133 µM.

For the compound `CCCCCNC(=N)N/N=C/c1c[nH]c2ccc(OC)cc12` [TEGASEROD MALEATE], the 50% inhibitory concentration (IC50) in assay [1], in assay [2], in assay [3] and in assay [4] was more than 133 µM throughout.

For `C[C@@H]1CCN(C(=O)CC#N)C[C@@H]1N(C)c1ncnc2[nH]ccc12` [TOFACITINIB], the half-inhibitory concentration (IC50) in assay [1], in assay [2], in assay [3] and in assay [4] was more than 133 µM in each case.

Turning to `C=CCc1ccccc1OCC(O)CNC(C)C` (centres undefined) [ALPRENOLOL], the IC50 in assay [1], in assay [2], in assay [3] and in assay [4] was more than 133 µM in each case.

In the case of `CS(=O)(=O)OCCCCOS(C)(=O)=O` [BUSULFAN], the half-inhibitory concentration (IC50) in assay [1], in assay [2], in assay [3] and in assay [4] was more than 133 µM in each case.

On to `CC(C)C(=O)OCC(=O)[C@@]12O[C@H](C3CCCCC3)O[C@@H]1C[C@H]1[C@@H]3CCC4=CC(=O)C=C[C@]4(C)[C@H]3[C@@H](O)C[C@@]12C` [CICLESONIDE], for which the 50% inhibitory concentration (IC50) in assay [1], in assay [2], in assay [3] and in assay [4] was more than 133 µM in each case.

Turning to `COc1ccccc1OCCNCC(O)COc1cccc2[nH]c3ccccc3c12` (centres undefined) [CARVEDILOL], the IC50 in assay [1], in assay [2], in assay [3] and in assay [4] was more than 133 µM in each case.

For the compound `CN(C)CCCN1c2ccccc2Sc2ccc(Cl)cc21` [CHLORPROMAZINE], the IC50 in assay [1], in assay [2], in assay [3] and in assay [4] was more than 133 µM each time.

For `CC1=C(/C=C/C(C)=C/C=C/C(C)=C/C(=O)O)C(C)(C)CCC1` [TRETINOIN], the half-inhibitory concentration (IC50) in assay [1], in assay [2], in assay [3] and in assay [4] was more than 133 µM each time.

`O=S(=O)(O)CCS` [MESNA]: the IC50 in assay [1], in assay [2], in assay [3] and in assay [4] was more than 133 µM throughout.

With `O=C(CCCCCCC(=O)Nc1ccccc1)NO` [VORINOSTAT], the IC50 in assay [1], in assay [2], in assay [3] and in assay [4] was more than 133 µM in each case.

As to `CC(=O)CCCCn1c(=O)c2c(ncn2C)n(C)c1=O` [PENTOXIFYLLINE], the IC50 in assay [1], in assay [2], in assay [3] and in assay [4] was more than 133 µM each time.

Regarding `CC(=O)O[C@H]1C[C@@H]2CC[C@@H]3[C@H](CC[C@@]4(C)[C@H]3C[C@H]([N+]3(C)CCCCC3)[C@@H]4OC(C)=O)[C@@]2(C)C[C@@H]1N1CCCCC1` [VECURONIUM BROMIDE], the IC50 in assay [1], in assay [2], in assay [3] and in assay [4] was more than 133 µM in each case.

`CS(=O)(=O)Nc1ccc([N+](=O)[O-])cc1Oc1ccccc1` [NIMESULIDE]: the IC50 in assay [1], in assay [2], in assay [3] and in assay [4] was more than 133 µM in each case.

`Cc1ccc(-c2cc(C(F)(F)F)nn2-c2ccc(S(N)(=O)=O)cc2)cc1` [CELECOXIB]: the 50% inhibitory concentration (IC50) in assay [1], in assay [2], in assay [3] and in assay [4] was more than 133 µM throughout.

With `CNC1=Nc2ccc(Cl)cc2C(c2ccccc2)=[N+]([O-])C1` [CHLORDIAZEPOXIDE], the IC50 in assay [1] is more than 133 µM; in assay [2], 44.1 µM; in assay [3] it was more than 133 µM; in assay [4], more than 133 µM.

On to `CN(C)c1ccc(O)c2c1C[C@H]1C[C@H]3[C@H](N(C)C)C(O)=C(C(N)=O)C(=O)[C@@]3(O)C(O)=C1C2=O` [MINOCYCLINE HYDROCHLORIDE], for which the IC50 in assay [1], in assay [2], in assay [3] and in assay [4] was more than 133 µM in each case.

Consider `CC1Cc2ccccc2N1NC(=O)c1ccc(Cl)c(S(N)(=O)=O)c1` (centres undefined) [INDAPAMIDE], for which the IC50 in assay [1], in assay [2], in assay [3] and in assay [4] was more than 133 µM in each case.

As to `CNC1(c2ccccc2Cl)CCCCC1=O` (centres undefined) [KETAMINE], the concentration for half-maximal inhibition (IC50) in assay [1], in assay [2], in assay [3] and in assay [4] was more than 133 µM in each case.

For the compound `Fc1ccc([C@@H]2CCNC[C@H]2COc2ccc3c(c2)OCO3)cc1` [PAROXETINE HYDROCHLORIDE], the 50% inhibitory concentration (IC50) in assay [1], in assay [2], in assay [3] and in assay [4] was more than 133 µM in each case.

Take `O=NN(CCCl)C(=O)NCCCl` [CARMUSTINE]: the IC50 in assay [1], in assay [2], in assay [3] and in assay [4] was more than 133 µM each time.

As for `Clc1cccc(N2CCNCC2)c1` [CHLOROPHENYLPIPERAZINE], the IC50 in assay [1], in assay [2], in assay [3] and in assay [4] was more than 133 µM each time.

As for `C[C@]12C/C(=C/O)C(=O)C[C@@H]1CC[C@@H]1[C@@H]2CC[C@@]2(C)[C@H]1CC[C@]2(C)O` [OXYMETHOLONE], the concentration for half-maximal inhibition (IC50) in assay [1] is more than 133 µM; in assay [2] it was 48.7 µM; in assay [3], more than 133 µM; in assay [4] it was more than 133 µM.

As for `CC(C)NNC(=O)c1ccncc1` [IPRONIAZID], the 50% inhibitory concentration (IC50) in assay [1], in assay [2], in assay [3] and in assay [4] was more than 133 µM throughout.

On to `CCCCC(=O)N(Cc1ccc(-c2ccccc2-c2nnn[nH]2)cc1)[C@H](C(=O)O)C(C)C`, for which the 50% inhibitory concentration (IC50) in assay [1], in assay [2], in assay [3] and in assay [4] was more than 133 µM throughout.

`Cc1cc(=O)n(-c2ccccc2)n1C` [ANTIPYRINE]: the IC50 in assay [1], in assay [2], in assay [3] and in assay [4] was more than 133 µM throughout.

Take `C#CCN[C@@H]1CCc2ccccc21` [RASAGILINE MESYLATE]: the 50% inhibitory concentration (IC50) in assay [1], in assay [2], in assay [3] and in assay [4] was more than 133 µM in each case.

`O=C(NCCN1CCOCC1)c1ccc(Cl)cc1` [MOCLOBEMIDE]: the IC50 in assay [1], in assay [2], in assay [3] and in assay [4] was more than 133 µM in each case.
